Reference: EP2818471A1, “Nitrogen bicyclic compounds as inhibitors for Scyl1 and Grk5” (Max-Planck-Gesellschaft zur Förderung der Wissenschaften …, priority 2013, dated 2014)

Test system: beta-TC6 cells
Test: Insulin HTRF assay, relative activity Ar normalized to sunitinib
Type: cell-based
Conditions: Mus musculus, normalized to positive control sunitinib (5 µM = 100%), Table 10
Method in brief: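 beta-TC6 cells (15k/well) were seeded for 24 or 48 h, washed and exposed to test compound or sunitinib (5 µM f.c.) in induction buffer with 0.5% DMSO for 2, 3 or 4 h at 37°C. Secreted insulin in the supernatant was measured by two-antibody HTRF after 120 min at RT. Ar = (V − 0% control)/(100% control − 0% control) × 100.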

SMILES | Emax [%]
O=C(O)CCc1ccc(-c2cnc3cnc(-c4ccccc4Cl)cn23)cc1 [compound 331, 3-[4-[6-(2-chlorophenyl)imidazo[1,2-a]pyrazin-3-yl]phenyl]propanoic acid] | 50 to 100
Fc1cccc(-c2cnc3cnc(-c4ccc(N5CCNCC5)cc4)cn23)c1 [compound 387, 3-(3-fluorophenyl)-6-(4-piperazin-1-ylphenyl)imidazo[1,2-a]pyrazine] | 10 to 20
c1cncc(CCNc2ccc3ncc(-c4ccc5ccccc5c4)n3n2)c1 [compound 25, 3-(2-naphthyl)-N-[2-(3-pyridyl)ethyl]imidazo[1,2-b]pyridazin-6-amine] | 10 to 20
CN1CCN(C(=O)c2ccc(-c3cnc4cnc(/C=C/c5ccccc5)cn34)cc2)CC1 [compound 402, (4-methylpiperazin-1-yl)-[4-[6-[(E)-styryl]imidazo[1,2-a]pyrazin-3-yl]phenyl]methanone] | 10 to 20
COc1ccc(-c2nnc3ccc(-c4cccc(F)c4)cn23)cc1OC [compound 187, 3-(3,4-dimethoxyphenyl)-6-(3-fluorophenyl)-[1,2,4]triazolo[4,3-a]pyridine] | ≥ 100
Fc1cccc(-c2ccc3ncc(-c4ccc5c(c4)OCO5)n3n2)c1 [compound 104, 3-(1,3-benzodioxol-5-yl)-6-(3-fluorophenyl)imidazo[1,2-b]pyridazine] | 20 to 50
N#Cc1ccc(-c2cnc3cnc(-c4ccccc4)cn23)cc1 [compound 335, 4-(6-phenylimidazo[1,2-a]pyrazin-3-yl)benzonitrile] | 20 to 50
Fc1ccc(-c2cn3c(-c4ccsc4)cnc3cn2)cc1Cl [compound 320, 6-(3-chloro-4-fluoro-phenyl)-3-(3-thienyl)imidazo[1,2-a]pyrazine] | 20 to 50
c1cnc2cc(-c3nnc4ccc(-c5ccoc5)cn34)ccc2n1 [compound 245, 6-[6-(3-furyl)-[1,2,4]triazolo[4,3-a]pyridin-3-yl]quinoxaline] | 50 to 100
CN(C)c1ccc(-c2cnc3cnc(-c4cccc(C(N)=O)c4)cn23)cc1 [compound 292, 3-[3-(4-dimethylaminophenyl)imidazo[1,2-a]pyrazin-6-yl]benzamide] | 20 to 50
CN(C)c1cccc(-c2cnc3cnc(-c4cccs4)cn23)c1 [compound 345, N,N-dimethyl-3-[6-(2-thienyl)imidazo[1,2-a]pyrazin-3-yl]aniline] | 20 to 50
COc1cc(-c2cn3c(-c4ccccc4Cl)cnc3cn2)ccc1O [compound 406, 4-[3-(2-chlorophenyl)imidazo[1,2-a]pyrazin-6-yl]-2-methoxy-phenol] | 20 to 50
CN(C)c1ccc(-c2ccc3ncc(-c4ccc(CO)cc4)n3n2)cc1 [compound 129, [4-[6-(4-dimethylaminophenyl)imidazo[1,2-b]pyridazin-3-yl]phenyl]methanol] | 50 to 100
Cc1ccccc1-c1nnc2ccc(-c3ccc(C(N)=O)cc3)cn12 [compound 225, 4-[3-(o-tolyl)-[1,2,4]triazolo[4,3-a]pyridin-6-yl]benzamide] | 20 to 50
Oc1cccc(-c2nnc3ccc(-c4ccc(F)cc4)cn23)c1 [compound 208, 3-[6-(4-fluorophenyl)-[1,2,4]triazolo[4,3-a]pyridin-3-yl]phenol] | 50 to 100
N#Cc1ccc(-c2cnc3cnc(-c4ccsc4)cn23)cc1 [compound 336, 4-[6-(3-thienyl)imidazo[1,2-a]pyrazin-3-yl]benzonitrile] | 20 to 50
COc1ccc(-c2cn3c(-c4ccc(N(C)C)cc4)cnc3cn2)cn1 [compound 288, 4-[6-(6-methoxy-3-pyridyl)imidazo[1,2-a]pyrazin-3-yl]-N,N-dimethyl-aniline] | 50 to 100
C(#Cc1ccccn1)c1ccc2nnc(-c3ccccc3)n2c1 [compound 167, 3-phenyl-6-[2-(2-pyridyl)ethynyl]-[1,2,4]triazolo[4,3-a]pyridine] | 50 to 100
CCC(CO)Nc1ccc2ncc(-c3ccccc3Cl)n2n1 (stereo not shown) [compound 9, 2-[[3-(2-chlorophenyl)imidazo[1,2-b]pyridazin-6-yl]amino]butan-1-ol] | 10 to 20
